From patent US20160039880A1 (priority 2012, published 2016)
Values after ≈ are worked out from the molar mass of the structure shown. Where two headings read alike, the source gives them in different places.

Key:
[1] = Water Solubility Assay (measured in pH 7.8 buffer); type: physicochemical; details: for Water Solubility Assay: pH 7.8;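 on all read-outs here: precipitation onset detected as rise in absorbance at 650 nm across increasing concentrations, after shaking for 18 h, blank wells receiving DMSO only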
Calcineurin [2] = molecular target: T1, Calcineurin (Homo sapiens, UniProt P62937+P63098+Q08209)
T1 sequence (P63098 whole entry, other chains not shown): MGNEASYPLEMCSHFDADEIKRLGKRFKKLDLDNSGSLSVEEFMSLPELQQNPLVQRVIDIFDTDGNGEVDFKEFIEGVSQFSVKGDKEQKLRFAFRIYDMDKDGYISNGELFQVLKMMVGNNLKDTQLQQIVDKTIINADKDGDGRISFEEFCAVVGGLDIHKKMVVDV
T1 sequence (P62937 whole entry, other chains not shown): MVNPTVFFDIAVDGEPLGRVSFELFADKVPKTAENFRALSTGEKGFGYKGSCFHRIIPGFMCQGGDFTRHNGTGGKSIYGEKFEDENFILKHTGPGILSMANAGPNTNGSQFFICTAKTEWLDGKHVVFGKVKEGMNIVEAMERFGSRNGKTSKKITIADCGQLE

[3] = molecular target: T2, Human recombinant cyclophilin A (Cyp A) (Homo sapiens, UniProt P62937);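 further: cis to trans isomerization of SUC-AAPF-pNA by 2 nM enzyme, read as absorbance at 330 nm over 300 s at 10 °C, catalytic rate corrected for uncatalyzed background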
T2 sequence (P62937 whole entry): as the sequence (P62937 whole entry, other chains not shown) above

[4] = molecular target: T2, Human recombinant cyclophilin A (Cyp A); assay: Protease-free PPIase assay;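 further: cis to trans isomerization of SUC-AAPF-pNA by 2 nM enzyme, read as absorbance at 330 nm over 300 s at 10 °C, catalytic rate corrected for uncatalyzed background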
Calcineurin [5] = molecular target: T1, Calcineurin; assay: Calcineurin Phosphatase (CaN) Assay with Cyp A (+CypA); details: for IC50: read-out: Calcineurin Phosphatase (CaN) Assay (+CypA) IC50, in the presence of Cyp A, 1:1 complex with inhibitor
[6] = read-out: Protease-free PPIase Assay Ki, cyclophilin A, 10 °C
[7] = 35 mM HEPES pH 7.8, 1% DMSO, 25 °C, 18 h, read-out: Water Solubility Assay, concentration at which the compound remains in solution

Compound | Water Solubility Assay [1] | immunosuppressive potential (Calcineurin [2]) | Ki [3] | Ki [4, 6] | solubility at 18 h [1, 7] | IC50 (Calcineurin [5]) | also measured
CC[C@H]1NC(=O)[C@@H]([C@H](O)[C@H](C)CCN2CC(F)(F)C(F)(F)C2)N(C)C(=O)[C@@H](C(C)C)N(C)C(=O)[C@@H](CC(C)C)N(C)C(=O)[C@@H](CC(C)C)N(C)C(=O)[C@H](C)NC(=O)[C@@H](C)NC(=O)[C@@H](CC(C)C)N(C)C(=O)[C@@H](C(C)C)NC(=O)[C@H](CC(C)C)N(C)C(=O)[C@@H](C)N(C)C1=O [Compound ER, [(3R,4R,5S)-4-Hydroxy-3-methyl-5-(methylamino)-1-(3,3,4,4-tetrafluoro-pyrrolidin-1-yl)-hexanoic acid]^1[(R)-methyl-Sar]^3 cyclosporin A] | 25 to 50 µM | more immunosuppressive potential than others | 6.7 nM | – | – | – | –
CC[C@H]1NC(=O)[C@@H]([C@H](O)[C@H](C)CCN2CC(F)(F)OC(F)(F)C2)N(C)C(=O)[C@@H](C(C)C)N(C)C(=O)[C@@H](CC(C)C)N(C)C(=O)[C@@H](CC(C)C)N(C)C(=O)[C@H](C)NC(=O)[C@@H](C)NC(=O)[C@@H](CC(C)C)N(C)C(=O)[C@@H](C(C)C)NC(=O)[C@H](CC(C)C)N(C)C(=O)[C@@H](C)N(C)C1=O [Compound EK, [(3R,4R,5S)-4-Hydroxy-3-methyl-5-(methylamino)-1-(2,2,6,6-tetrafluoro-morpholin-4-yl)-hexanoic acid]^1[(R)-methyl-Sar]^3 cyclosporin A] | 25 to 50 µM | more immunosuppressive potential than others | 12 nM | – | – | – | –
CC[C@H]1NC(=O)[C@@H]([C@H](O)[C@H](C)CCN2CCC(F)(F)C2)N(C)C(=O)[C@@H](C(C)C)N(C)C(=O)[C@@H](CC(C)C)N(C)C(=O)[C@@H](CC(C)C)N(C)C(=O)[C@H](C)NC(=O)[C@@H](C)NC(=O)[C@@H](CC(C)C)N(C)C(=O)[C@@H](C(C)C)NC(=O)[C@H](CC(C)C)N(C)C(=O)[C@@H](C)N(C)C1=O [Compound EL, [(3R,4R,5S)-(3,3-Difluoro-pyrrolidin-1-yl)-4-Hydroxy-3-methyl-5-(methylamino)-1-hexanoic acid]^1[(R)-methyl-Sar]^3 cyclosporin A] | 75 to 100 µM | more immunosuppressive potential than others | 10 nM | – | – | – | –
CC[C@H]1NC(=O)[C@@H]([C@H](O)[C@H](C)CCN2CCC(F)(F)CC2)N(C)C(=O)[C@@H](C(C)C)N(C)C(=O)[C@@H](CC(C)C)N(C)C(=O)[C@@H](CC(C)C)N(C)C(=O)[C@H](C)NC(=O)[C@@H](C)NC(=O)[C@@H](CC(C)C)N(C)C(=O)[C@@H](C(C)C)NC(=O)[C@H](CC(C)C)N(C)C(=O)[C@@H](C)N(C)C1=O [Compound EN, [(3R,4R,5S)-(4,4-Difluoro-piperidin-1-yl)-4-hydroxy-3-methyl-5-(methylamino)-1-hexanoic acid]^1[(R)-methyl-Sar]^3 cyclosporin A] | 25 to 50 µM | more immunosuppressive potential than others | 6.7 nM | – | – | – | –
CC[C@@H]1NC(=O)[C@H]([C@H](O)[C@H](C)CCCC(=O)N2C[C@H]3CN(C)C[C@H]3C2)N(C)C(=O)[C@H](C(C)C)N(C)C(=O)[C@H](CC(C)C)N(C)C(=O)[C@H](CC(C)C)N(C)C(=O)[C@@H](C)NC(=O)[C@H](C)NC(=O)[C@H](CC(C)C)N(C)C(=O)[C@H](C(C)C)NC(=O)[C@H](CC(C)C)N(C)C(=O)[C@@H](C)N(C)C1=O (relative stereo) [Compound ZZ, [(5R,6R,7S)-6-hydroxy-5-methyl-7-(methylamino)-1-(N-(3aR*,6aS*)-2-methyloctahydropyrrolo[3,4-c]pyrrolo)-1-oxo-octanoic acid]1[(R)-methyl-Sar]3 cyclosporin A] | – | – | – | 2.6 nM | >100 µM | > 10000 nM | –
CC[C@H]1NC(=O)[C@@H]([C@H](O)[C@H](C)CCN2CCC(F)(F)C2)N(C)C(=O)[C@@H](C(C)C)N(C)C(=O)[C@@H](CC(C)C)N(C)C(=O)[C@@H](CC(C)C)N(C)C(=O)[C@H](C)NC(=O)[C@@H](C)NC(=O)[C@@H](CC(C)C)N(C)C(=O)[C@@H](C(C)C)NC(=O)[C@H](CC(C)C)N(C)C(=O)[C@@H](CO)N(C)C1=O [Compound EP] | – | more immunosuppressive potential than others | – | – | – | – | Ki [4]: 3.4 nM; solubility at 18 h ([1]; 25 °C, pH 7.8, aqueous buffer, kinetic from dmso stock): 50 to 75 µM (≈ 65.6 to 98.4 µg/mL)
CC[C@H]1NC(=O)[C@@H]([C@H](O)[C@H](C)CCN2CCCOCC2)N(C)C(=O)[C@@H](C(C)C)N(C)C(=O)[C@@H](CC(C)C)N(C)C(=O)[C@@H](CC(C)C)N(C)C(=O)[C@H](C)NC(=O)[C@@H](C)NC(=O)[C@@H](CC(C)C)N(C)C(=O)[C@@H](C(C)C)NC(=O)[C@H](CC(C)C)N(C)C(=O)[C@@H](C)N(C)C1=O [Compound X] | – | – | – | 4.9 nM | >100 µM | > 10000 nM | –
CC[C@H]1NC(=O)[C@@H]([C@H](O)[C@H](C)CCN2CCOCC2)N(C)C(=O)[C@@H](C(C)C)N(C)C(=O)[C@@H](CC(C)C)N(C)C(=O)[C@@H](CC(C)C)N(C)C(=O)[C@H](C)NC(=O)[C@@H](C)NC(=O)[C@@H](CC(C)C)N(C)C(=O)[C@@H](C(C)C)NC(=O)[C@H](CC(C)C)N(C)C(=O)[C@@H](COCCN(CC)CC)N(C)C1=O [Compound S, [(3R,4R,5S)-4-Hydroxy-3-methyl-5-(methylamino)-1-N-morpholino-hexanoic acid]^1[(R)-2-diethylaminoethyloxymethyl-Sar]^3 cyclosporin A] | – | – | – | 10 nM | >100 µM | > 10000 nM | –
CC[C@H]1NC(=O)[C@@H]([C@H](O)[C@H](C)CCN2CCOCC2)N(C)C(=O)[C@@H](C(C)C)N(C)C(=O)[C@@H](CC(C)C)N(C)C(=O)[C@@H](CC(C)C)N(C)C(=O)[C@H](C)NC(=O)[C@@H](C)NC(=O)[C@@H](CC(C)C)N(C)C(=O)[C@@H](C(C)C)NC(=O)[C@H](CC(C)C)N(C)C(=O)[C@@H](CSCCN(CC)CC)N(C)C1=O [Compound AC, [(3R,4R,5S)-4-Hydroxy-3-methyl-5-(methylamino)-1-N-morpholino-hexanoic acid]^1[(S)-2-diethylaminoethylthiomethyl-Sar]^3 cyclosporin A] | – | – | – | 7.5 nM | >100 µM | > 10000 nM | –
CC[C@H]1NC(=O)[C@@H]([C@H](O)[C@H](C)CCN2C[C@H]3CN(C)C[C@H]3C2)N(C)C(=O)[C@@H](C(C)C)N(C)C(=O)[C@@H](CC(C)C)N(C)C(=O)[C@@H](CC(C)C)N(C)C(=O)[C@H](C)NC(=O)[C@@H](C)NC(=O)[C@@H](CC(C)C)N(C)C(=O)[C@@H](C(C)C)NC(=O)[C@H](CC(C)C)N(C)C(=O)[C@@H](C)N(C)C1=O (relative stereo) [Compound O, [(3R,4R,5S)-4-Hydroxy-3-methyl-5-(methylamino)-1-(N-(3aR*,6aS*)-2-methyloctahydropyrrolo[3,4-c]pyrrolo)-hexanoic acid]^1[(R)-methyl-Sar]^3 cyclosporin A] | – | – | – | 8.2 nM | >100 µM | > 10000 nM | –
CC[C@H]1NC(=O)[C@@H]([C@H](O)[C@H](C)CCN2CC(F)(F)OC(F)(F)C2)N(C)C(=O)[C@@H](C(C)C)N(C)C(=O)[C@@H](CC(C)C)N(C)C(=O)[C@@H](CC(C)C)N(C)C(=O)[C@H](C)NC(=O)[C@@H](C)NC(=O)[C@@H](CC(C)C)N(C)C(=O)[C@@H](C(C)C)NC(=O)[C@H](CC(C)C)N(C)C(=O)[C@@H](CO)N(C)C1=O [Compound EO] | – | – | – | – | – | – | Ki [4]: 13 nM; solubility at 18 h ([1]; 35 mM HEPES buffer pH 7.8, 25 °C, aqueous buffer, kinetic from dmso stock, pH 7.8 buffer, read-out: Water Solubility Assay): 10 to 25 µM (≈ 13.6 to 34.1 µg/mL); immunosuppressive potential (Calcineurin [5]; in words, as measured by the MLR and CaN assays): more immunosuppressive potential than others
